Test results from a melting point compilation (Tetko et al.; mined from patent text by program, amines drawn as free bases though some values may be those of a salt).

Structure (SMILES) | melting point [°C]
CC(C)(c1ccc(C(C)(C)c2ccc(O)cc2O)cc1)c1ccc(O)cc1O | 110 to 115
CCC(CC)n1nc(C)c2c(O)nc(C)nc21 | 202 to 203
COc1cc(-c2nc(NC(C)(C)C)c3c(C)c(C#N)sc3n2)cc(OC)c1OC | 195 to 197
Cc1cc(C)c([N+](=O)[O-])cc1N1CCC1=O | 102
Cc1oc(C=Cc2ccccc2Cl)nc1C(=O)O | 223 to 224
CC[C@H](C)[C@H](NC[C@@H](N)CS)C(=O)N[C@@H](Cc1ccccc1)C(=O)N[C@@H](CCSC)C(=O)OCc1ccccc1 | 71 to 78
CCOC(=O)C(C)(C)N1OCC(CSC)=C(c2ccccc2)C1=O | 105 to 106
COC(=O)NNc1cc(Cl)c(C)c2c1OC(C)C2 (centres undefined) | 112 to 114
CCCC(=O)Oc1ccc2nc(NC(=O)Nc3ccccc3)sc2c1 | 207 to 211
COc1ccc(CNc2ncccc2C(=O)O)cc1 | 229
CCN(CC)CCNC(=O)c1ccc([N+](=O)[O-])cc1OC | 59.3
CC(C)C(NC(=O)OCc1csc(N2CCCC2)n1)C(=O)NN(C(=O)OCc1cncs1)C(Cc1ccccc1)CC(O)CCc1ccccc1 (centres undefined) | 165 to 167
CCC(C)(C)c1ccc(OCCCCc2c(O)cc3ccccc3c2C(N)=O)c(C(C)(C)CC)c1 | 118 to 124
Cc1ccc(-c2nc(-c3ccc(C)cc3C)nc(-c3ccc(OCC(=O)OC4CC(C)(C)N(OC5CCCCC5)C(C)(C)C4)cc3O)n2)c(C)c1 | 105 to 109
CC(CCc1cccc(F)c1)NCC(O)c1ccc(F)c(S(N)(=O)=O)c1 (centres undefined) | 65 to 85
O=C1COc2ccc(-c3cnn(CC(F)(F)F)c3-c3ccc(F)cc3)cc2N1 | 227
CC1=C(C(=O)OC(C)C)C(c2cccc([N+](=O)[O-])c2)C(C(=O)OC2CN(C(c3ccccc3)c3ccccc3)C2)=C(N)N1 (centres undefined) | 95 to 98
CC(C)(C)c1ccc(OCC(=O)N2Cc3ccc(C(=O)NCc4cccnc4)n3Cc3ccccc32)cc1 | 85
COc1ccc(OC(=O)Cl)cc1C12CC3CC(CC(C3)C1)C2 | 87 to 89
COc1ccc(-c2cnn3c(N)c(-c4cccc(Cl)c4)c(CF)nc23)cc1OC | 228 to 230
CCOC(=O)C(=CNc1ccc(F)c(F)c1OCc1ccccc1)C(=O)OCC | 87
CC(=O)Nc1ccc(C#N)c(F)c1F | 175 to 177
CN1CCCC(c2nc(-c3ccncc3)c(-c3ccc(F)cc3)[nH]2)C1 (centres undefined) | 195 to 197

Structure (SMILES) | melting point [°C]
CC(=O)Nc1cc(Br)nn1-c1c(Cl)cc(C(F)(F)F)cc1Cl | 180 to 187
COc1ccc2c(c1)OC(CN1CC=C(c3c[nH]c4ccccc34)CC1)CO2 (centres undefined) | 166 to 168
O=C(Nc1ccccc1)OC(c1cccnc1)C(Cl)(Cl)Cl (centres undefined) | 146
Cc1ccn(-c2ccc(S(C)(=O)=O)cc2)c1-c1ccc(Cl)cc1 | 173 to 174
CC(C)(C)C(=O)Oc1ccc(-c2nn(C3CCCC3)c3c(F)cccc23)cc1 | 105
CC(O)(C(=O)O)c1ccc2c(c1)Cc1ccccc1-2 (centres undefined) | 164 to 168
COc1ccc(C(=O)Nc2cccc(C3(C#N)CCCC3)c2)cc1OC | 59 to 61
O=C(O)c1cccc(-c2ccc3c(c2)C(c2cc(Cl)ccc2Cl)CC3)c1 (centres undefined) | 229 to 230
NC(=O)Nc1cccc2c1C(=O)c1c-2n[nH]c1-c1ccco1 | 278
CCOC(=O)c1cc2ccc([Si](C)(C)C)cc2[nH]1 | 127 to 129
C[C@@H]1CCC[C@H](C)N1CCNC(=O)CN1C(=O)CCC1(C)C | 94 to 94.5
N#Cc1c(C(F)(F)F)ccc(Cl)c1F | 43 to 44
CS(=O)(=O)Nc1cccc(Nc2nc(NCCc3c[nH]cn3)c3nc[nH]c3n2)c1 | 205 to 210
N#Cc1cc(C(=O)NNC(=O)c2occc2-c2cccc(OCc3ccccc3)c2)ccc1O | 190 to 195
FC(F)(F)c1ccc(-c2ccc(N3CCCN(c4ccc(-c5ccc(C(F)(F)F)cc5)cn4)CC3)nc2)cc1 | 236 to 238
Cc1cc2ncnn2nc1OCC(CS(N)(=O)=O)C(C)C (centres undefined) | 196 to 197
CCCCCc1nc(O)c(-c2ccccc2)s1 | 128 to 130
CC(C)(C)C(=O)CN1C(=O)c2ccccc2C1=O | 96 to 99
CC1(O)CCC2C3CCC45OC4(C)C(=O)C(C#N)CC5(C)C3CCC21C (centres undefined) | 166 to 167
c1ccc2c(c1)cc1n2CC2(CC1)CO2 (centres undefined) | 104 to 107
CN(NC(=O)OC(C)(C)C)C(=O)C(C)(C)ON1C(=O)c2ccccc2C1=O | 140 to 145
O=C(Nc1ccc(C(=O)N2Cc3cccn3Cc3ccccc32)c(Cl)c1)c1ccccc1-c1cccs1 | 132 to 136

Results, then the molecule that gave them:

melting point [°C] | Structure (SMILES)
322 to 325 | Cn1ccc2c3c(c(I)cc21)C(=O)NC3=O
184 | Cc1n[nH]c([N+](=O)[O-])c1-c1ncc([N+](=O)[O-])n1C
48 to 49 | COC(=O)c1c(Cl)cc(C(F)(F)F)nc1C(F)(F)F
181 | C#CCOC(=O)C1=C(C)NC(N)=C(C(=O)OCC)C1c1cccc([N+](=O)[O-])c1 (centres undefined)
217 to 219 | C[C@@H]1[C@@H](N)CN1c1c(F)cc2c(=O)c(C(=O)O)cn3c2c1OC[C@H]3C
169 to 171 | CCOC(=O)Nc1sc(C)c(C#N)c1S(=O)(=O)NC(=S)NC(C)C
223 to 224 | CNC1([C@@H]2CCN(c3ccc4c(=O)c(C(=O)O)cn([C@@H]5C[C@@H]5F)c4c3C)C2)CC1
202 to 204 | C#CCOc1cc(-n2c(=O)cc(C(F)(F)F)[nH]c2=O)ccc1C
166 to 168 | O=S(=O)(c1ccc(O)cc1)c1c(-c2ccccc2)oc2ccccc12
118 to 120 | COCCOc1c(C)c(N2CCN(c3ccc(C)cc3)CC2)c(C)c2c1OC(C)(C)C2
238 to 239 | CCCCc1nc2cc(C(=O)O)ccc2n1Cc1ccccc1Cl
99 to 101 | O=C1C[C@@H](C(=O)O)N(C(=O)OCc2ccccc2)C1
134 to 135 | CCn1nc2c(N)nc(C)cc2c1CC(C)(C)O
236 to 238 | CC(C)Oc1ccc(-n2c(C(=O)O)c(C(=O)O)c3cc(Oc4ncccc4C(N)=O)ccc32)cc1
95 to 97 | COc1ccc(Cc2cnc(NCCSCc3nccs3)[nH]c2=O)cn1
200 to 204 | O=S1(=O)NCNc2ccc(Br)cc21
298 to 302 | OC1(F)CC(c2ccccc2)=Nc2ccccc21 (centres undefined)
69 to 75 | OCC(O)COc1ccc(Br)cc1 (centres undefined)
43 to 45 | CCOC(=O)C=Cc1cnc(C(C)(C)C)nc1
93 to 95 | COc1ccccc1C1CC=NN1C(=O)c1cccnc1 (centres undefined)
156 to 157 | O=C(O)COc1cccc2c(CNC(=O)COc3ccccc3)coc12
73.2 | CC(C)CC(C#N)(C#N)Cc1ccc(Cl)cc1
198 to 200 | N#Cc1c(Br)[nH]c(Br)c1C(F)(F)F
130 to 131 | Cc1nc(NCCSCc2csc(CN(C)C)n2)[nH]c(=O)c1Cc1cccnc1
175 to 176 | CC1(C)CN=C(c2cc3cc(F)cc(NS(=O)(=O)c4cccs4)c3[nH]2)S1
87 to 88 | CCCCCc1c(C(C)C)nc(C(C)C)c(CO)c1-c1ccc(CC)cc1
172 to 174 | CCOC(=O)CNC(=O)c1cn2nc(NCCCN3CCC(OC(c4ccccc4)c4ccccc4)CC3)ccc2n1

melting point [°C] | Structure (SMILES)
86 to 88 | CCOCN1C(C)=C(C(=O)OC)C(c2cccc([N+](=O)[O-])c2)C(C(=O)OC)=C1C
120 to 122 | O=C1NC(=O)C(Cc2ccc(C(=O)CCCc3ccccc3)cc2)S1 (centres undefined)
221 to 222 | O=c1[nH][nH]c(=O)n1-c1c(F)cc(F)cc1F
154 to 155 | N#Cc1ccc(N(Cc2ccc(OS(N)(=O)=O)c(Cl)c2)n2cnnc2)cc1-c1ccoc1
217 to 220 | Cc1ccc(C(=O)NCCO)c(Nc2ccc3cn[nH]c3c2)n1
108 | Cc1noc(NC(=O)c2c(O)ccc3cc(-c4cccc(O)c4)ccc23)c1C
176 to 177 | Cc1nc2ccccc2c(NCc2ccccc2)c1C(C)O (centres undefined)
118 to 119 | CC(C)(C)OC(=O)Nc1cccc(C(=O)OCC#N)c1
100 | O=[N+]([O-])c1cccnc1NCc1cccs1
80 to 85 | CCCCN(C(=O)N[C@@H](CC(=O)O)c1ccc2c(c1)OCO2)C1CC(=O)N(Cc2ccccc2)C1=O (some centres undefined)
129 | CCn1c2c(c3ccccc31)C=CN(C(=O)OC)C=C2C(=O)OC
157 | CN(C)C(=O)c1cc2c(NCCc3ccccc3)ncnc2s1
159 to 161 | Cn1cc(C(=O)c2ccc(F)cc2)cc1C(=O)c1ccccn1
114 to 116 | CCOC(=O)C1Cc2cc(-c3noc4ccccc34)c(Cl)c(Cl)c2O1 (centres undefined)
144 to 145 | CCOC(=O)c1c(O)c(O)c(C(=O)OCC)n1Cc1ccccc1
195 | N#Cc1cn(COC(CO)CO)c2ncnc(N)c12
128 to 130 | Nc1ccc(C(=O)c2ccccc2F)cc1
148 to 149 | CCCCc1c(C)c2ccc(OCCCN3CCN(Cc4ccc(Cl)cc4)CC3)cc2[nH]c1=O
167 to 169 | CCNc1nc(-c2ccccc2)c(-c2ccc(=O)n(C(C)C)n2)s1
239 | CN(C(=O)CCc1ccccc1)c1ccc(C(=O)NN=C2C(=O)Nc3ccc(I)cc32)cc1
76 to 78 | CCOC(=O)c1c(C(C)C)c2n(c1-c1ccc(F)cc1)CCCC2
261 | NC(=O)c1cnc2cc(F)c(F)cc2c1
86.5 | CCOC=C(C(=O)CCl)C(=O)OCC
203 to 206 | Nc1cccc(-c2ccc(-c3ccccc3)cc2)c1N
112 to 113 | CCOc1cc(OCc2ccccc2OCc2nc(-c3ccccc3)oc2C)ccc1CCC(=O)O
214 to 218 | C[C@]1(COc2ccc(N3CCC(OCc4ccc(OC(F)(F)F)cc4)CC3)cc2)Cn2cc([N+](=O)[O-])nc2O1
98 to 100 | COc1nn(CC(=O)C2CC2)c(=O)s1
